“Also recorded” adds a separate entry of the source.
Tests used:
mdx mice = assay: Maximal lethal dose by daily intraperitoneal injection in mdx mice; format: in vivo
Method: FIGS. 48A-48C. Systemic delivery of CM002 by intraperitoneal injection improves muscle strength in dystrophic mdx mice. Based on the PK analysis, we determined the maximal lethal dose in mdx mice via daily intraperitoneal injections using escalating doses. Starting doses were tested at 10, 20 and 30 mg/Kg/day, for 3 consecutive days in male or female mdx mice (FIG. 48A).

cells = assay: Cellular toxicity observed across cell assays; format: cell-based
[1] = In vivo pharmacokinetics after intravenous tail vein injection; design: species or system mouse; settings: 1 mg/kg intravenous
Method: FIGS. 47A-47C. In vivo PK study of CM002 by intravenous administration in C57/BL6 mice. We next performed pharmacokinetic analysis of CM002 in normal wild-type C57/BL6 mice to guide in vivo studies. Following intravenous delivery of CM002 via tail vein injection at 1 mg/kg of body weight in three mice of 12 weeks of age, we monitored its plasma concentrations at 6 hours (FIG. 47A) and 24 hours (FIG. 47B). […] Quantitative analysis of key pharmacokinetic parameters is shown in FIG. 47C, based on 1 mg/kg/day intravenous administration.

3T3-L1 preadipocytes [2] = assay: Adipogenic differentiation of 3T3-L1 preadipocytes; format: cell-based
Method: Cell culture and adipogenic differentiation. 3T3-L1 and C3H10T1/2 cell lines were obtained from ATCC, and maintained in DMEM with 10% fetal bovine serum supplemented with 1% Penicillin-Streptomycin-Glutamine, as previously described (Nam, Guo, Chatterjee et al., 2015; Liu, Xiong, Nam et al., 2020). 0.25% Trypsin was used for digestion and passaging of these cell lines. For adipogenic differentiation induction media (1.6 μM insulin, 1 μM dexamethasone, 0.5 mM IBMX, 0.5 uM Rosiglitazone) was used for 3 days followed by maintenance medium with insulin for 3 days for 3T3-L1 and 5 days for C3H10T1/2 cells, as previously described (Liu et al., 2020). Oil-red-O and Bodipy staining. These stainings for neutral lipids during adipogenic differentiation were performed as previously described (Nam et al., 2015). Briefly, for oil-red-O staining, cells were fixed using 10% formalin and incubated using 0.5% oil-red-O solution for 1 hour. Bodipy 493/503 was used at 1 mg/L together with DAPI for 15 minutes, following 4% paraformaldehyde fixation and permeabilization with 0.2% triton-X100. Immunoblot analysis. Total protein was extracted using lysis buffer containing 3% NaCl, 5% Tris-HCl, 10% Glycerol, 0.5% Triton X-10 in MilliQ water with protease inhibitor cocktail. 20-40 μg of total protein was resolved on 10% SDS-PAGE gels followed by immunoblotting on PVDF membranes (Bio-rad). […]

C2C12 myoblasts [3] = assay: Wound healing assay of C2C12 myoblasts; format: cell-based, mouse; settings: 8 and 24 hours; 0.2 to 1 μM; vs DMSO
Method: Cells were seeded at 12×10^5 concentration on 6 well plates until 90% coverage and treated with compounds as indicated and controls while maintained 10% FBS 1% PSG DMEM. Scratch wounds were made with disposable cells scrapers and pictures were taken at hours 0, 4, 8, 24 and 48 following scratch. The results were measured as percentage coverage over original wound area based on image quantification. Area of wound closure was measured using Image J software.

3T3-L1 preadipocytes [4] = assay: Clock and Wnt gene expression in 3T3-L1 cells; format: cell-based; settings: RT-qPCR
Method: RNA extraction and RT-qPCR analysis. PureLink RNA Mini Kit (Invitrogen) were used to isolate total RNA from cells. cDNA was generated using Revert Aid RT kit (ThermoFisher) and quantitative PCR was performed using SYBR Green Master Mix (Thermno Fisher) in triplicates on ViiA 7 Real-Time PCR System (Applied Biosystems). Relative expression levels were determined using the comparative Ct method with normalization to 361B4 as internal control.

C2C12 myoblasts [5] = assay: Clock and Wnt pathway gene/protein expression in C2C12 myoblasts during myogenic differentiation; format: cell-based, mouse
Method: Total protein (20-30 μg) was extracted using standard IP Lysis buffer (3% NaCl, 5% Tris-HCl, 10% Glycerol, 0.5% Triton X-10 in Sterile MilliQ water) and resolved on 10% SDS-Page gels followed by western blotting on Immun-Blot PVDF Membranes for Protein Blotting (Bio-rad). Antibodies used were diluted in 5% milk (Labscientific CN: M0841). Membranes were washed with TBS-T [10% TBS, 0.1% Tween™ 20 (Fisher BioReagents CN: BP377-500)]. Images were developed using Luminol solution 1:1 SuperSignal West Pico PLUS Stable Peroxide Solution (Thermo Scientific CN: 1863095) and SuperSignal West Pico PLUS Luminol Enhancer Solution (Thermo Scientific CN: 1863094) on chemiluminescence imager (GE Healthcare Bio-Sciences AB Amersham Imager 680).
Cells extracted with TRIzol™ Reagent (Ambion CN: 15596018) were collected. RNA extraction was performed with Chloroform (Fisher Chemical CN: C298-500) and Isopropanol (Fisher Chemical CN: A451SK-4) extraction followed by two purification steps with 75% Ethanol (Fisherbrand CN: HC-800-1GAL) and elution in Sterile MilliQ water.
The RNA concentration was measured using Nanodrop spectrophotometer (Thermo Fisher). Following RNA extraction, retro transcription was performed using RevertAid RT Reverse Transcription Kit (Thermo Fisher CN: K1691) and run on SimpliAmp Thermal Cycler (Thermo Fisher CN: A24811) according to the kit procedure. Quantitative PCR was performed using PowerUp™ SYBR™ Green Master Mix (Thermo Fisher CN: A25742) using a dilution of 5:2:1 master mix, RNA and H2Omq according to the protocol on ViiA 7 Real-Time PCR System (Applied Biosystems). Relative expression levels were determined using the comparative Ct method to normalize target genes to 36B4 internal controls.
Pictures were taken every day to monitor morphological progression, and proteins and RNA samples were collected on days indicated.

For CCCCCC/C=N/C(=N)NC(=N)Nc1ccc(Cl)cc1 [CM002], the “lethality at 20 mg/kg” value (mdx mice; IP injection) was “young adult mice at 14 weeks of age were succumbed to death, while older mice over 6 months of age survived”, the “lethality at 30 mg/kg” value (mdx mice; IP injection) was “most mice injected at 30 mg/kg deceased” and the lethal dose (mdx mice; intraperitoneal, 3 consecutive days) was “over 20 mg/kg/day”. For the same molecule, the “tolerability at 10 mg/kg” value (mdx mice; male mice of 10-14 weeks, IP) was “tolerated 10 mg/kg well without any lethality”, the “viability of cells at 1 μM” value (cells) was “maintained” and the “plasma level at half-life” value [1] was about 100 ng/mL. The “time of tissue re-distribution” value [1] was at most 30 min, the “time to being largely cleared” value [1] was at most 24 h and the maximal plasma concentration ([1]; C57/BL6 mice) was about 1.47 mg/L. The half-life ([1]; mouse, plasma, C57/BL6 mice) was 6.76 ± 1.33 h.
With [H]/N=C(\N/C(=N/[H])NCCCCCCNC(=N)NC(=N)Nc1ccc(Cl)cc1)Nc1ccc(Cl)cc1 [CHX, chlorhexidine] the “formation of lipid-laden mature adipocyte” value (3T3-L1 preadipocytes [2]; day 6, oil-red-O, Bodipy) was “sufficient to inhibit the formation of lipid-laden mature adipocyte in a dose-dependent manner”, the “C/EBPα and PPARγ levels” value (3T3-L1 preadipocytes [2]; differentiation day 6) was “only moderate tendency of lowering of C/EBPα and PPARγ levels” and the “wound area closure (migration)” value (C2C12 myoblasts [3]) was “significantly increased”. For the same molecule, the “core clock gene expression” value (3T3-L1 preadipocytes [4]) was “Largely similar effects on inducing core clock genes”, the “CLOCK and Bmal1 protein levels with targets Rev-erbα and Cry2” value (C2C12 myoblasts [5]; 0.5 uM, through 6 days of differentiation) was “robustly stimulated” and the “induction of Wnt10a, Fzd5 and β-catenin in Bmal1-deficient myoblasts” value (C2C12 myoblasts [5]; BMKD myoblasts) was “completely abolished in Bmal1-deficient myoblasts; also recorded: abolished in Bmal1-deficient cells”. For the same molecule, the “induction of Clock, Bmal1, Rev-erbα and Per2 in Bmal1 shRNA (BMKD) cells” value (C2C12 myoblasts [5]; day 4 of myogenic differentiation, vs scrambled control) was “completely abolished in the BMKD cells” and the “Wnt10a, Fzd5 and β-catenin expression” value (C2C12 myoblasts [5]; scrambled control (SC) myoblasts, RT-qPCR) was “significantly induced by CHX at 0.5 μM with tendency toward induction at 0.2 μM”.
